Results reported in patent US20260115331A1, “PET IMAGING OF BACTERIAL INFECTION WITH A PET PROBE” (Mayo Foundation for Medical Education and Research, priority 2022, published 2026).
Like-named read-outs stand apart in the source and are kept apart here.

Columns and labels:
[1] = Biodistribution in normal mice at 120 min post injection; type: in vivo; conditions: N = 5, 120 min post injection
Source text: (§1) The feasibility of the developed PET probe [^68Ga]Ga-H3P2O8 in a mouse model of thigh infection as well as uptake in E. coli has been evaluated. […] The biodistribution of developed PET probe in normal and in thigh infected mice has been assessed (see FIG. 11). […] Micro-PET imaging of normal and thigh-infected mice has also been performed. The site of bacterial infection was evident on micro-PET images (see FIG. 13) with arrows in contrast to the non-infected group of mice. The bacterial site of infection on micro-PET images was confirmed by bacterial culture performed on the biopsied sample. Micro-PET imaging was performed at different time intervals to optimize imaging time.

[2] = tested on: E coli; test: Biodistribution in thigh infected mice (E. coli) at 120 min post injection; type: in vivo; conditions: n = 4, 2 h post infection with E coli
Source text: as §1

[3] = tested on: Methicillin-resistant Staphylococcus aureus (MRSA); type: in vivo, rats; conditions: for SUV (Average ± SD), Contralateral Tibia / SUV (Average ± SD), Infected Tibia / SUV (Average ± SD), Muscle: Osteomyelitis Foreign Body model
Protocol: (§2) The PET probe [^68Ga]Ga-H3P2O8 was evaluated in methicillin-resistant S. aureus (MRSA) foreign-body osteomyelitis in the left tibia with a stainless steel Kirschner wire (K-wire) implant in male Wister rats, following a previously established protocol [Ref. 17]. Briefly, a 1 cm incision was made on the medial tibia and the bone exposed. A 1.5 mm hole was drilled, 0.01 mL of arachidonic acid (a sclerosing agent) and 0.05 mL of a suspension containing MRSA DRL-6169 at 10^8 cfu/mL was injected into the bone. A 5 mm threaded stainless-steel K-wire was inserted. The hole was closed with dental gypsum and the site closed. After implantation, the muscle and fascia were closed with 3-0 vicryl using simple interrupted sutures. The skin was closed with sterile wound clips and VetBond. The wound was sprayed with Aluspray and Chew Guard. After 7 days of implantation of wire, the animal was put on iron-deficient diet for 7 days and on the day of imaging, the animals were fasted for 4 hours prior to the injection of the PET probe. [^68Ga]Ga-H3P2O8 (32.81±6.28 MBq, n=18) were injected into the rat model via tail vein injection. The rat model was either a normal rat model or an osteomyelitis foreign body rat model or an inflamed foreign body rat model. PET/CT images were acquired at 15 minutes, 30 minutes, 60 minutes, and 120 minutes post-injection using Siemens Inveon MicroPET/CT Scanner (see FIGS. 17, 18, and Table 2).
(§3) The acquired PET images were visualized and analyzed for quantifying standardized uptake value (SUV) using image analysis software—MIM 7 software and PMOD. Following final imaging at 120 minutes post-injection, the animal was euthanized, and major organs and infected and inflamed tibia were extracted for gamma counting for ex-vivo biodistribution analysis (see FIG. 22). At the end of last imaging session, rats were euthanized by cardiectomy, and the operated tibia with K-wire or contralateral tibia were aseptically removed. Following removal, tibias were weighed, and Ga-68 radioactivity was counted in 2480 Wizard2 automatic gamma counter for ex-vivo biodistribution assessment. The tibias were then frozen to −80° C. The frozen tibia from each animal was crushed aseptically using a bone pulverizer chilled at −80° C. The crushed tibia without K wire was weighed and vortexed in 1 mL sterile saline. The K wire was also vortexed in 1.0 mL sterile saline separately. The vortexed tibia and K-wire saline suspension were sonicated for 5 minutes. After sonication, 1:10 serial dilutions were prepared in saline and 0.1 mL of each dilution was plated in Trypticase Soy Agar plates with 5% Sheep Blood (TSA II). After 24 hours of incubation at 37° C., the bacterial cultures in tibia suspension and K-wire suspension were quantified. In the 2-week-old osteomyelitis model used in the study, the infected tibia contained 7.00±0.19 log10 cfu/g tibia (n=10) and 5.41±0.40 log10 cfu/K-wire (n=10).

[4] = PET/CT image analysis (SUV) in normal rat model; type: in vivo, rats; conditions: for SUV (Average ± SD), Normal Tibia: Normal group
Protocol: as §2, §3

[5] = PET image analysis (SUV) of inflamed tibia in foreign body inflammation rat model; type: in vivo, rats; conditions: each time point up to 120 minutes (FIG. 27)
Protocol: as §2
To assess the preferential uptake of novel [^68Ga]Ga-H3P2O8 PET probe in infection as compared to inflammation, the same surgery and imaging was performed but omitted the MRSA. […] The probe [^68Ga]Ga-H3P2O8 was also successfully used to detect thigh infection caused by E coli in a mouse model.
To further investigate the selectivity of [^68Ga]Ga-H3P2O8 for imaging infection over inflammation, this novel probe was compared to other PET imaging probes, [^68Ga]Ga-Citrate and [^18F]FDG in an inflammation model. In a side-by-side study, all three probes were used to image inflammation (i.e., an inflamed tibia) in an osteomyelitis foreign body rat model.

[6] = tested on: Methicillin-resistant Staphylococcus aureus (MRSA); type: in vivo, rats; conditions: PET image analysis, p<0.05 (FIG. 30)

## O=P(O)(O)[O][Ga]1[O]P(=O)(O)[O]1 [[^68Ga]Ga-H3P2O8, [^68Ga]Ga-hydrogen bisphosphate]
[1]; Adipose
  SUV ± STD, Adipose: 0.76 ± 0.38 SUV
[1]; Bladder
  SUV ± STD, Bladder: 2.41 ± 2.84 SUV
[1]; Blood
  SUV ± STD, Blood: 2.76 ± 0.97 SUV
[1]; Bone
  SUV ± STD, Bone: 1.88 ± 1.26 SUV
[1]; Brain
  SUV ± STD, Brain: 0.07 ± 0.02 SUV
[1]; Cecum
  SUV ± STD, Cecum: 1.33 ± 0.60 SUV
[1]; Eye
  SUV ± STD, Eye: 2.30 ± 1.41 SUV
[1]; Feces
  SUV ± STD, Feces: 0.82 ± 0.28 SUV
[1]; Gut
  SUV ± STD, Gut: 1.15 ± 0.29 SUV
[1]; Heart
  SUV ± STD, Heart: 0.87 ± 0.30 SUV
[1]; Kidney-1
  SUV ± STD, Kidney-1: 1.11 ± 0.29 SUV
[1]; Kidney-2
  SUV ± STD, Kidney-2: 0.71 ± 0.20 SUV
[1]; Liver
  SUV ± STD, Liver: 1.05 ± 0.42 SUV
[1]; Lung-1
  SUV ± STD, Lung-1: 2.17 ± 0.85 SUV
[1]; Lung-2
  SUV ± STD, Lung-2: 3.22 ± 2.29 SUV
[1]; Normal Thigh
  SUV ± STD, Normal Thigh: 0.52 ± 0.23 SUV
[1]; Skin
  SUV ± STD, Skin: 0.71 ± 0.38 SUV
[1]; Spleen
  SUV ± STD, Spleen: 0.70 ± 0.16 SUV
[1]; Stomach
  SUV ± STD, Stomach: 0.49 ± 0.24 SUV
[2]; Adipose
  SUV ± STD, Adipose: 0.34 ± 0.34 SUV
[2]; Bladder
  SUV ± STD, Bladder: 3.11 ± 3.0 SUV
[2]; Blood
  SUV ± STD, Blood: 1.83 ± 0.20 SUV
[2]; Bone
  SUV ± STD, Bone: 2.73 ± 1.12 SUV
[2]; Brain
  SUV ± STD, Brain: 0.81 ± 1.5 SUV
[2]; Cecum
  SUV ± STD, Cecum: 1.74 ± 0.55 SUV
[2]; Eye
  SUV ± STD, Eye: 3.86 ± 1.71 SUV
[2]; Feces
  SUV ± STD, Feces: 0.93 ± 0.43 SUV
[2]; Gut
  SUV ± STD, Gut: 1.78 ± 0.10 SUV
[2]; Heart
  SUV ± STD, Heart: 0.61 ± 0.14 SUV
[2]; Infected Thigh
  SUV ± STD, Infected Thigh: 1.12 ± 0.43 SUV
[2]; Kidney-1
  SUV ± STD, Kidney-1: 3.24 ± 1.19 SUV
[2]; Kidney-2
  SUV ± STD, Kidney-2: 3.28 ± 2.10 SUV
[2]; Liver
  SUV ± STD, Liver: 2.02 ± 0.89 SUV
[2]; Lung-1
  SUV ± STD, Lung-1: 2.13 ± 0.54 SUV
[2]; Lung-2
  SUV ± STD, Lung-2: 3.03 ± 0.53 SUV
[2]; Normal Thigh
  SUV ± STD, Normal Thigh: 0.25 ± 0.05 SUV
[2]; Skin
  SUV ± STD, Skin: 0.88 ± 0.63 SUV
[2]; Spleen
  SUV ± STD, Spleen: 0.80 ± 0.69 SUV
[2]; Stomach
  SUV ± STD, Stomach: 0.48 ± 0.14 SUV
[3]; MRSA infected tibia, after 60 minutes post injection, PET image analysis (FIG. 26)
  mean SUV in infected tibia compared with [^68Ga]Ga-Citrate or [^18F]FDG: significantly higher mean SUV
[3]; n = 5, 15 min post-injection
  SUV (Average ± SD), Contralateral Tibia: 0.76 ± 0.17 SUV
  SUV (Average ± SD), Infected Tibia: 1.82 ± 0.57 SUV
  SUV (Average ± SD), Muscle: 0.59 ± 0.14 SUV
[3]; n = 5, 30 min post-injection
  SUV (Average ± SD), Contralateral Tibia: 0.59 ± 0.12 SUV
  SUV (Average ± SD), Infected Tibia: 2.40 ± 0.49 SUV
  SUV (Average ± SD), Muscle: 0.58 ± 0.20 SUV
[3]; n = 5, 60 min post-injection
  SUV (Average ± SD), Contralateral Tibia: 0.60 ± 0.15 SUV
  SUV (Average ± SD), Infected Tibia: 2.87 ± 0.66 SUV
  SUV (Average ± SD), Muscle: 0.67 ± 0.18 SUV
[3]; n = 5, 120 min post-injection
  SUV (Average ± SD), Contralateral Tibia: 0.29 ± 0.18 SUV
  SUV (Average ± SD), Infected Tibia: 3.48 ± 0.25 SUV
  SUV (Average ± SD), Muscle: 0.76 ± 0.30 SUV
[4]; n = 4, 15 min post-injection
  SUV (Average ± SD), Normal Tibia: 0.76 ± 0.03 SUV
  SUV (Average ± SD), Muscle in Normal group: 0.35 ± 0.10 SUV
[4]; n = 4, 30 min post-injection
  SUV (Average ± SD), Normal Tibia: 0.76 ± 0.09 SUV
  SUV (Average ± SD), Muscle in Normal group: 0.50 ± 0.12 SUV
[4]; n = 4, 60 min post-injection
  SUV (Average ± SD), Normal Tibia: 0.80 ± 0.09 SUV
  SUV (Average ± SD), Muscle in Normal group: 0.49 ± 0.10 SUV
[4]; n = 4, 120 min post-injection
  SUV (Average ± SD), Normal Tibia: 0.89 ± 0.16 SUV
  SUV (Average ± SD), Muscle in Normal group: 0.48 ± 0.09 SUV
[5]
  difference in mean SUV between the probes in inflamed tibia: no significant difference
[6]
  mean SUV for MRSA-infected animal compared with animals infected with K. pneumoniae or P. aeruginosa: significantly higher
